Data as given in patent publication US9884842B2, “Combretastatin analogs” (The Board of Trustees of the University of Arkansas, priority 2013, dated 2018).

Key:
[1] = system: OVCAR-4; experiment: NCI growth inhibition and cytotoxicity screen, Ovarian Cancer panel; conditions: Homo sapiens; for GI50: OVCAR-4; for CC50: OVCAR-4, read-out: LC50
[2] = system: K-562; experiment: NCI growth inhibition and cytotoxicity screen, Leukemia panel; conditions: Homo sapiens; for GI50: K562; for CC50: K562, read-out: LC50
[3] = system: SF-539; experiment: NCI growth inhibition and cytotoxicity screen, CNS Cancer panel; conditions: Homo sapiens; for GI50: SF-539; for CC50: SF-539, read-out: LC50
[4] = system: OVCAR-3; experiment: cells; conditions: Homo sapiens; for GI50: OVCAR-3; for CC50: OVCAR-3, read-out: LC50
[5] = system: SW-620; experiment: NCI growth inhibition and cytotoxicity screen, Colon Cancer panel; conditions: Homo sapiens; for GI50: SW-620; for CC50: SW-620, read-out: LC50
[6] = system: SK-MEL-2; experiment: NCI growth inhibition and cytotoxicity screen, Melanoma panel; conditions: Homo sapiens; for GI50: SK-MEL-2; for CC50: SK-MEL-2, read-out: LC50
[7] = system: HOP-92; experiment: NCI growth inhibition and cytotoxicity screen, Lung Cancer panel; conditions: Homo sapiens; for GI50: HOP-92; for CC50: HOP-92, read-out: LC50
[8] = system: NCI-H460; experiment: as above; conditions: Homo sapiens; for GI50: NCI-H460; for CC50: NCI-H460, read-out: LC50
[9] = system: 786-0; experiment: NCI growth inhibition and cytotoxicity screen, Renal Cancer panel; conditions: Homo sapiens; for GI50: 786-0; for CC50: 786-0, read-out: LC50
[10] = system: T-47D; experiment: NCI growth inhibition and cytotoxicity screen, Breast Cancer panel; conditions: Homo sapiens, T47D; for CC50: read-out: LC50
[11] = system: SF-268; experiment: NCI growth inhibition and cytotoxicity screen, CNS Cancer panel; conditions: Homo sapiens; for GI50: SF-268; for CC50: SF-268, read-out: LC50
[12] = system: SK-MEL-5; experiment: NCI growth inhibition and cytotoxicity screen, Melanoma panel; conditions: Homo sapiens; for GI50: SK-MEL-5; for CC50: SK-MEL-5, read-out: LC50
[13] = system: HL-60(TB); experiment: cells; conditions: Homo sapiens; for GI50: HL-60; for CC50: HL-60, read-out: LC50
[14] = system: MDA-MB-435; experiment: NCI growth inhibition and cytotoxicity screen, Melanoma panel; conditions: Homo sapiens; for GI50: MDA-MB-435; for CC50: MDA-MB-435, read-out: LC50
[15] = system: ACHN; experiment: NCI growth inhibition and cytotoxicity screen, Renal Cancer panel; conditions: Homo sapiens; for CC50: read-out: LC50
[16] = system: MDA-MB-231/ATCC; experiment: NCI growth inhibition and cytotoxicity screen, Breast Cancer panel; conditions: Homo sapiens; for GI50: MDA-MB-231; for CC50: MDA-MB-231, read-out: LC50
[17] = system: SK-MEL-28; experiment: NCI growth inhibition and cytotoxicity screen, Melanoma panel; conditions: Homo sapiens; for GI50: SK-MEL-28; for CC50: SK-MEL-28, read-out: LC50
[18] = system: MALME-3M; experiment: as above; conditions: Homo sapiens; for CC50: read-out: LC50
[19] = system: OVCAR-5; experiment: NCI growth inhibition and cytotoxicity screen, Ovarian Cancer panel; conditions: Homo sapiens; for GI50: OVCAR-5; for CC50: OVCAR-5, read-out: LC50
[20] = system: NCI-H322M; experiment: NCI growth inhibition and cytotoxicity screen, Lung Cancer panel; conditions: Homo sapiens; for CC50: read-out: LC50
[21] = system: DU-145; experiment: NCI growth inhibition and cytotoxicity screen, Prostate Cancer panel; conditions: Homo sapiens; for GI50: DU-145; for CC50: DU-145, read-out: LC50
[22] = system: TK-10; experiment: NCI growth inhibition and cytotoxicity screen, Renal Cancer panel; conditions: Homo sapiens; for GI50: TK-10; for CC50: TK-10, read-out: LC50
[23] = system: A549/ATCC; experiment: NCI growth inhibition and cytotoxicity screen, Lung Cancer panel; conditions: Homo sapiens; for GI50: A549; for CC50: A549, read-out: LC50
[24] = system: CCRF-CEM; experiment: NCI growth inhibition and cytotoxicity screen, Leukemia panel; conditions: Homo sapiens; for CC50: read-out: LC50
[25] = system: HCC-2998; experiment: NCI growth inhibition and cytotoxicity screen, Colon Cancer panel; conditions: Homo sapiens; for GI50: HCC 2998; for CC50: HCC 2998, read-out: LC50
[26] = system: MDA-MB-468; experiment: cells; conditions: Homo sapiens; for GI50: MDA-MB-468; for CC50: MDA-MB-468, read-out: LC50
[27] = system: SK-OV-3; experiment: NCI growth inhibition and cytotoxicity screen, Ovarian Cancer panel; conditions: Homo sapiens; for GI50: SK-OV-3; for CC50: SK-OV-3, read-out: LC50
[28] = system: A498; experiment: NCI growth inhibition and cytotoxicity screen, Renal Cancer panel; conditions: Homo sapiens; for GI50: A498; for CC50: A498, read-out: LC50
[29] = system: SN12C; experiment: as above; conditions: Homo sapiens; for CC50: read-out: LC50
[30] = system: BT-549; experiment: NCI growth inhibition and cytotoxicity screen, Breast Cancer panel; conditions: Homo sapiens; for GI50: BT-549; for CC50: BT-549, read-out: LC50
[31] = system: IGROV1; experiment: NCI growth inhibition and cytotoxicity screen, Ovarian Cancer panel; conditions: Homo sapiens; for GI50: IGROV-1; for CC50: IGROV-1, read-out: LC50
[32] = system: HOP-62; experiment: NCI growth inhibition and cytotoxicity screen, Lung Cancer panel; conditions: Homo sapiens; for GI50: HOP-62; for CC50: HOP-62, read-out: LC50

COc1cc(OC)cc(/C(C#N)=C/c2cnc3ccccc3c2)c1 [PNR-4-85, (Z)-3-(quinolin-3-yl)-2-(3,5-dimethoxyphenyl)acrylonitrile]
GI50 [1]: 1730 nM
CC50 [1]: > 100000 nM
GI50 [2]: 243 nM
CC50 [2]: > 100000 nM
GI50 [3]: 289 nM
CC50 [3]: > 100000 nM
GI50 [4]: 279 nM
CC50 [4]: > 100000 nM
GI50 [5]: 352 nM
CC50 [5]: > 100000 nM
GI50 [6]: 709 nM
CC50 [6]: > 100000 nM
GI50 [7]: 3090 nM
CC50 [7]: > 100000 nM
GI50 [8]: 362 nM
CC50 [8]: > 100000 nM
GI50 [9]: 484 nM
CC50 [9]: > 100000 nM
GI50 [10]: 628 nM
CC50 [10]: > 100000 nM
GI50 [11]: 654 nM
CC50 [11]: > 100000 nM
GI50 [12]: 249 nM
CC50 [12]: > 100000 nM
GI50 [13]: 234 nM
CC50 [13]: > 100000 nM
GI50 [14]: 53 nM
CC50 [14]: > 100000 nM
GI50 [15]: 1190 nM
CC50 [15]: > 100000 nM
GI50 [16]: 1150 nM
CC50 [16]: > 100000 nM
GI50 [17]: 1400 nM
CC50 [17]: > 100000 nM
GI50 [18]: 635 nM
CC50 [18]: > 100000 nM
GI50 [19]: 587 nM
CC50 [19]: > 100000 nM
GI50 [20]: 903 nM
CC50 [20]: > 100000 nM
GI50 [21]: 505 nM
CC50 [21]: > 100000 nM
GI50 [22]: 17700 nM
CC50 [22]: > 100000 nM
GI50 [23]: 556 nM
CC50 [23]: > 100000 nM
GI50 [24]: 332 nM
CC50 [24]: > 100000 nM
GI50 [25]: 1450 nM
CC50 [25]: > 100000 nM
GI50 [26]: 217 nM
CC50 [26]: > 100000 nM
GI50 [27]: 576 nM
CC50 [27]: > 100000 nM
GI50 [28]: 333 nM
CC50 [28]: > 100000 nM
GI50 [29]: 661 nM
CC50 [29]: > 100000 nM
GI50 [30]: 388 nM
CC50 [30]: > 100000 nM
GI50 [31]: 3500 nM
CC50 [31]: > 100000 nM
GI50 [32]: 793 nM
CC50 [32]: > 100000 nM

COc1cc(/C=C/c2nc3ccccc3s2)cc(OC)c1OC [Formula (I)(d)]
GI50 [1]: 1.81 nM
CC50 [1]: > 100000 nM
GI50 [2]: 0.041 nM
CC50 [2]: > 100000 nM
GI50 [3]: 0.076 nM
CC50 [3]: 56200 nM
GI50 [4]: 0.069 nM
CC50 [4]: > 100000 nM
GI50 [5]: 0.43 nM
CC50 [5]: > 100000 nM
GI50 [6]: 0.064 nM
CC50 [6]: 64200 nM
GI50 [7]: 0.036 nM
CC50 [7]: 77400 nM
GI50 [8]: 0.11 nM
CC50 [8]: > 100000 nM
GI50 [9]: 1.32 nM
CC50 [9]: > 100000 nM
GI50 [10]: 0.96 nM
CC50 [10]: > 100000 nM
GI50 [11]: 0.56 nM
CC50 [11]: > 100000 nM
GI50 [12]: 0.047 nM
CC50 [12]: 34000 nM
GI50 [13]: 0.037 nM
CC50 [13]: > 100000 nM
GI50 [14]: 0.024 nM
CC50 [14]: 44600 nM
GI50 [15]: 1.22 nM
CC50 [15]: > 100000 nM
GI50 [16]: 0.71 nM
CC50 [16]: > 100000 nM
GI50 [17]: 0.31 nM
CC50 [17]: 50500 nM
GI50 [18]: 0.07 nM
CC50 [18]: 51600 nM
GI50 [19]: 0.93 nM
CC50 [19]: > 100000 nM
CC50 [20]: > 100000 nM
GI50 [21]: 0.27 nM
CC50 [21]: > 100000 nM
GI50 [22]: 11.1 nM
CC50 [22]: > 100000 nM
GI50 [23]: 0.11 nM
CC50 [23]: > 100000 nM
GI50 [24]: 0.13 nM
CC50 [24]: > 100000 nM
GI50 [25]: 2.23 nM
CC50 [25]: 63500 nM
GI50 [26]: 0.82 nM
CC50 [26]: > 100000 nM
GI50 [27]: 0.16 nM
CC50 [27]: > 100000 nM
GI50 [28]: 0.041 nM
CC50 [28]: 35800 nM
GI50 [29]: 9.37 nM
CC50 [29]: > 100000 nM
GI50 [30]: 3.7 nM
CC50 [30]: 58800 nM
GI50 [31]: 0.24 nM
CC50 [31]: 94200 nM
GI50 [32]: 0.39 nM
CC50 [32]: 81500 nM

COc1cc(/C(C#N)=C/c2ccc3ccccc3n2)cc(OC)c1OC [PNR-4-90, (Z)-3-(quinolin-2-yl)-2-(3,4,5-trimethoxyphenyl)acrylonitrile]
GI50 [1]: 1430 nM
CC50 [1]: > 100000 nM
GI50 [2]: 80 nM
CC50 [2]: > 100000 nM
GI50 [3]: 197 nM
CC50 [3]: 14900 nM
GI50 [4]: 163 nM
CC50 [4]: 54900 nM
GI50 [5]: 164 nM
CC50 [5]: > 100000 nM
GI50 [6]: 483 nM
CC50 [6]: > 100000 nM
GI50 [7]: 736 nM
CC50 [7]: > 100000 nM
GI50 [8]: 361 nM
CC50 [8]: > 100000 nM
GI50 [9]: 445 nM
CC50 [9]: > 100000 nM
GI50 [10]: 4760 nM
CC50 [10]: > 100000 nM
GI50 [11]: 835 nM
CC50 [11]: > 100000 nM
GI50 [12]: 243 nM
CC50 [12]: > 100000 nM
GI50 [13]: 223 nM
CC50 [13]: > 100000 nM
GI50 [14]: 33 nM
CC50 [14]: 60000 nM
GI50 [15]: 1040 nM
CC50 [15]: > 100000 nM
GI50 [16]: 943 nM
CC50 [16]: > 100000 nM
GI50 [17]: 518 nM
CC50 [17]: > 100000 nM
GI50 [19]: 580 nM
CC50 [19]: > 100000 nM
GI50 [20]: 718 nM
CC50 [20]: > 100000 nM
GI50 [21]: 446 nM
CC50 [21]: > 100000 nM
GI50 [22]: 4690 nM
CC50 [22]: > 100000 nM
GI50 [23]: 375 nM
CC50 [23]: > 100000 nM
GI50 [24]: 248 nM
CC50 [24]: > 100000 nM
GI50 [25]: 610 nM
CC50 [25]: > 100000 nM
GI50 [26]: 243 nM
CC50 [26]: > 100000 nM
GI50 [27]: 524 nM
CC50 [27]: > 100000 nM
GI50 [28]: 295 nM
CC50 [28]: > 100000 nM
GI50 [29]: 627 nM
CC50 [29]: > 100000 nM
GI50 [30]: 315 nM
CC50 [30]: > 100000 nM
GI50 [31]: 846 nM
CC50 [31]: > 100000 nM
GI50 [32]: 567 nM
CC50 [32]: > 100000 nM
